In patent US20230200388A1, “COMPOUNDS AND METHODS FOR STIMULATING PLANTS” (Sound Agriculture Company, priority 2020, published 2023):

What was measured:
Format in all cases: cell-based
[1] = system: nifHpro::luciferase Azotobacter vinelandii reporter line; test: Nitrogenase (nifH) activity with nifHpro::luciferase Azotobacter vinelandii reporter line; details: 10 μM to 0.001 μM in DMSO, 21 hours, over controls, n=9 experiments, FIG. 6
Experimental: Gibson Assembly was used to clone the luciferase gene (ordered from IDT) into pE_Gm and LR into pVSP61 (plasmids provided by Doug Dahlbeck at Staskawicz Lab, UC Berkeley). Standard triparental mating was used with pRK600 (provided by Doug Dahlbeck at Staskawicz Lab, UC Berkeley) to obtain the final reporter strain of Azotobacter vinelandii transformed with reporter plasmid.
nifHpro::luciferase Azotobacter vinelandii were grown for 24 hours in 50 mL liquid Burks —N media (HiMedia Laboratories) with 1 ng/μL Kanamycin, shaking at 100 RPM under lights at ˜30° C. After 24 hours, supernatant was spun down 12000 G for two minutes to collect cells. After supernatant was removed, cells were washed with cleared Burks —N liquid media supernatant, resuspended, and centrifuged again at 12000 G. This process was repeated, for a total of two washes.
Resuspended cells were combined with Burks —N media with 1 ng/μL Kanamycin, to obtain a fresh culture at OD 0.1. 50 mL shake flasks were then inoculated with 5 mL of this culture, plus appropriate chemistry, in the scheme that follows. A stock solution of Quercetin was made in DMSO. […]
After 21 hours, 50 mL flasks were removed from the shaker. […] Plates were inserted into plate reader and luminescence of each well was analyzed.

[2] = system: soil's native microbial community; test: Phosphate solubilization in soil consortia (soil as inoculum in NBRIP media); details: relative to soil not contacted with QC
Description: To determine if a test compound, QC, alters phosphate solubilization in a soil's native microbial community, dried and sieved soil was used as a bacterial inoculum in NBRIP media with and without QC.

[3] = system: nifHpro::luciferase Azotobacter vinelandii reporter strain; test: nifHpro::luciferase bioreporter assay for nitrogen fixation; details: 1 μM, 24 h, relative to control bacteria not contacted
Experimental: Three hundred base pairs upstream of the ATG of the nifHDK of Azotobacter vinelandii (nifHipro) was cloned in frame, upstream of luciferase in pVSP61 (kanR). Azotobacter vinelandii (Lipman ATCC® BAA-1303) was transformed with the reporter plasmid with triparental mating, Transformants were selected for on nitrogen-free kanamycin plates and confirmed with PCR and sequencing.
Five milliliters of nifHpro::luciferase Bioreporter strain #171 was grown overnight in autoclaved, nitrogen-free medium (Burks, HiMedia M707) at starting OD600=0.02 with 1 ug/mL Kanamycin in sterile 50 mL flasks. Chemical treatments were dissolved in 100% EtOH and added at appropriate concentrations, keeping the volume constant. The solvent was no more than 2% of the final culture volume, and solvent only controls were included in each experiment.
After 24 h, the growth density each culture was read in a clear, flat-bottomed microplate by adding 180 μl to each well (flasks were measured in triplicate) and measuring absorbance at 600 nm in a microplate reader. […]
The luminescence of each well was read on an iD3 plate reader (Molecular Devices). Luminescence of each well (reported as RLU, Relative Light Unit) was divided by its OD600 in order to adjust for culture density.

Row | SMILES | activation of nifHpro::luciferase bioreporter (nitrogenase gene expression) [1] | amount of detectable orthophosphate in the growth media of soil-inoculated cultures [2] | luminescence (nitrogen fixation) [3]
1 | O=c1c(O)c(-c2ccc(O)c(O)c2)oc2cc(O)cc(O)c12 [Formula Id] | activated | – | –
2 | O=c1c(O)c(-c2ccc(O)c(O)c2)oc2cc(O)cc(O)c12 [QC, quercetin] | – | increased | significant increase
